System: OPM-2 human multiple myeloma cell line
Test: Cell Viability Assay (OPM-2 10 FBS), CellTiter-Glo
Format: cell-based
Conditions: Homo sapiens, OPM-2, 16 h, read-out: OPM-2 10% FBS IC50 IP (μM), OPM-2 cells, 10% FBS, 16 h, CellTiter-Glo
Experimental: Cell Viability Assay (OPM-2 10 FBS)
The human multiple myeloma cell line, OPM-2, was cultured in complete growth medium containing RPMI 1640 and 10% fetal bovine serum (FBS). Cells were seeded into 384-well plates at 3000 cells/well density in complete growth medium containing 10% FBS, and incubated for 16 h with serially diluted test compounds in a 37° C. incubator with 5% CO2. Cell viability was tested using CellTiter-Glo® assay (Promega, Madison, Wis.) according to the manufacturer recommendations. Luminescence was determined using an EnVision® Multilabel plate reader 25 min after the addition of detection reagent. IC50 values were then calculated with Xlfit using a logistical 4-parameter fit model in GraphPad Prism (GraphPad Software, San Diego, Calif.) or in Genedata Screener® (Genedata, Basel, Switzerland).

| SMILES | IC50 [µM] |
| --- | --- |
| CO[C@@]1(CN2CCN3CCC(F)(F)CC3C2)/C=C/C[C@H](C)[C@@H](C)S(=O)(=O)NC(=O)c2ccc3c(c2)N(C[C@@H]2CC[C@H]21)C[C@@]1(CCCc2cc(Cl)ccc21)CO3 (mixture of isomers) [Example 273] | 0.501 |
| C[C@@H]1[C@@H](C)CCC[C@@](O)(CN2CCN3CCOC[C@@H]3C2)[C@@H]2CC[C@H]2CN2C[C@@]3(CCCc4cc(Cl)ccc43)COc3ccc(cc32)C(=O)NS1(=O)=O [Example 7, (1S,3′R,6′R,7′S,11′S,12′R)-6-chloro-7′-((9aS)-hexahydropyrazino[2,1-c][1,4]oxazin-8(1H)-ylmethyl)-7′-hydroxy-11′,12′-dimethyl-3,4-dihydro-2H,15′H-spiro[naphthalene-1,22′-[20]oxa[13]thia[1,14]diazatetracyclo[14.7.2.0˜3,6˜.0˜19,24˜]pentacosa[16,18,24]trien]-15′-one 13′,13′-dioxide] | 0.025 |
| CO[C@]1(CN2CC[C@@H]3CCCC[C@H]3C2)/C=C/C[C@H](C)[C@@H](C)S(=O)(=O)NC(=O)c2ccc3c(c2)N(C[C@@H]2CC[C@H]21)C[C@@]1(CCCc2cc(Cl)ccc21)CO3 (single isomer, unassigned) [Example 90] | 8.98 |
| CO[C@@]1(CN2CCN3CCN(C)C[C@@H]3C2)/C=C/C[C@H](C)[C@@H](C)S(=O)(=O)NC(=O)c2ccc3c(c2)N(C[C@@H]2CC[C@H]21)C[C@@]1(CCCc2cc(Cl)ccc21)CO3 (stereo in doubt) [Example 210] | 0.185 |
| CO[C@@]1(CN2CCN([C@@H]3CCOC3)CC2)/C=C/C[C@H](C)[C@@H](C)S(=O)(=O)NC(=O)c2ccc3c(c2)N(C[C@@H]2CC[C@H]21)C[C@@]1(CCCc2cc(Cl)ccc21)CO3 (single isomer, unassigned) [Example 286] | 0.05 |
| CO[C@@]1(CN2CCCN(C(C)C)CC2)/C=C/C[C@H](C)[C@@H](C)S(=O)(=O)NC(=O)c2ccc3c(c2)N(C[C@@H]2CC[C@H]21)C[C@@]1(CCCc2cc(Cl)ccc21)CO3 (stereo in doubt) [Example 331] | 0.23 |
| CO[C@@]1(CN2CCN3CCC(F)(F)C[C@H]3C2)/C=C/C[C@H](C)[C@@H](C)S(=O)(=O)NC(=O)c2ccc3c(c2)N(C[C@@H]2CC[C@H]21)C[C@@]1(CCCc2cc(Cl)ccc21)CO3 (single isomer, unassigned) [Example 289] | 0.131 |
| CO[C@]1(CN2CCN3CCN(S(C)(=O)=O)C[C@@H]3C2)/C=C/C[C@H](C)[C@@H](C)S(=O)(=O)NC(=O)c2ccc3c(c2)N(C[C@@H]2CC[C@H]21)C[C@@]1(CCCc2cc(Cl)ccc21)CO3 (single isomer, unassigned) [Example 237] | 0.064 |
| CO[C@]1(CN2CCN3CCN(S(C)(=O)=O)C[C@@H]3C2)/C=C/C[C@H](C)[C@@H](C)S(=O)(=O)NC(=O)c2ccc3c(c2)N(C[C@@H]2CC[C@H]21)C[C@@]1(CCCc2cc(Cl)ccc21)CO3 (stereo in doubt) [Example 227] | 0.131 |
| CO[C@]1(CN2CCN3CCC(F)(F)C[C@H]3C2)/C=C/C[C@H](C)[C@@H](C)S(=O)(=O)NC(=O)c2ccc3c(c2)N(C[C@@H]2CC[C@H]21)C[C@@]1(CCCc2cc(Cl)ccc21)CO3 (single isomer, unassigned) [Example 299] | 0.456 |
| CO[C@@]1(CN2CCN3CCC(F)(F)C[C@@H]3C2)/C=C/C[C@H](C)[C@@H](C)S(=O)(=O)NC(=O)c2ccc3c(c2)N(C[C@@H]2CC[C@H]21)C[C@@]1(CCCc2cc(Cl)ccc21)CO3 (single isomer, unassigned) [Example 288] | 0.652 |
| CCCO[C@]1(CN2CCN3CCCC[C@@H]3C2)/C=C/C[C@H](C)[C@@H](C)S(=O)(=O)NC(=O)c2ccc3c(c2)N(C[C@@H]2CC[C@H]21)C[C@@]1(CCCc2cc(Cl)ccc21)CO3 [Example 353, (1S,3′R,6′R,7′R,8′E,11′S,12′R)-6-chloro-11′,12′-dimethyl-7′-((9aR)-octahydro-2H-pyrido[1,2-a]pyrazin-2-ylmethyl)-7′-propoxy-3,4-dihydro-2H,15′H-spiro[naphthalene-1,22′-[20]oxa[13]thia[1,14]diazatetracyclo [14.7.2.0~3,6~.0~19,24~]pentacosa[8,16,18,24]tetraen]-15′-one 13′,13′-dioxide] | 0.186 |
| C[C@@H]1[C@@H](C)C/C=C/[C@]2(CN3CCN(C)C[C@@H]3CO2)[C@@H]2CC[C@H]2CN2C[C@@]3(CCCc4cc(Cl)ccc43)COc3ccc(cc32)C(=O)NS1(=O)=O (single isomer, unassigned) [Example 132] | 0.263 |
| CO[C@]1(CN2CC[C@H]3CCCC[C@@H]3C2)/C=C/C[C@H](C)[C@@H](C)S(=O)(=O)NC(=O)c2ccc3c(c2)N(C[C@@H]2CC[C@H]21)C[C@@]1(CCCc2cc(Cl)ccc21)CO3 (stereo in doubt) [Example 86] | 7.95 |
| CO[C@]1(CN2CCN3CCC[C@@H]3C2)/C=C/C[C@H](C)[C@@H](C)S(=O)(=O)NC(=O)c2ccc3c(c2)N(C[C@@H]2CC[C@H]21)C[C@@]1(CCCc2cc(Cl)ccc21)CO3 [Example 83] | 0.245 |
| CO[C@]1(CN2CCN3CCC(F)(F)C[C@@H]3C2)/C=C/C[C@H](C)[C@@H](C)S(=O)(=O)NC(=O)c2ccc3c(c2)N(C[C@@H]2CC[C@H]21)C[C@@]1(CCCc2cc(Cl)ccc21)CO3 (stereo in doubt) [Example 292] | 0.399 |
| CO[C@]1(CN2CCN(C(C)C)[C@H](C)C2)/C=C/C[C@H](C)[C@@H](C)S(=O)(=O)NC(=O)c2ccc3c(c2)N(C[C@@H]2CC[C@H]21)C[C@@]1(CCCc2cc(Cl)ccc21)CO3 [Example 8, (1S,3′R,6′R,7′R,8′E,11′S,12′R)-6-chloro-7′-methoxy-11′,12′-dimethyl-7′-(((3R)-3-methyl-4-(1-methylethyl)-1-piperazinyl)methyl)-3,4-dihydro-2H,15′H-spiro[naphthalene-1,22′-[20]oxa[13]thia[1,14]diazatetracyclo[14.7.2.0˜3,6˜.0˜19,24˜]pentacosa[8,16,18,24]tetraen]-15′-one 13′,13′-dioxide] | 0.025 |
| CO[C@@]1(CN2CCN3CCN(C(=O)CCS(=O)(=O)c4ccccc4)C[C@H]3C2)/C=C/C[C@H](C)[C@@H](C)S(=O)(=O)NC(=O)c2ccc3c(c2)N(C[C@@H]2CC[C@H]21)C[C@@]1(CCCc2cc(Cl)ccc21)CO3 (single isomer, unassigned) [Example 295] | 0.104 |
| C=CC(=O)N1CCN2CCN(C[C@]3(OC)/C=C/C[C@H](C)[C@@H](C)S(=O)(=O)NC(=O)c4ccc5c(c4)N(C[C@@H]4CC[C@H]43)C[C@@]3(CCCc4cc(Cl)ccc43)CO5)C[C@H]2C1 (stereo in doubt) [Example 234] | 0.071 |
| CO[C@]1(CN2CCN3CCCC[C@@H]3C2)/C=C/C[C@H](C)[C@@H](C)S(=O)(=O)NC(=O)c2ccc3c(c2)N(C[C@@H]2CC[C@H]21)C[C@@]1(CCCc2cc(Cl)ccc21)CO3 [Example 10, (1S,3′R,6′R,7′R,8′E,11′S,12′R)-6-chloro-7′-methoxy-11′,12′-dimethyl-7′-((9aR)-octahydro-2H-pyrido[1,2-a]pyrazin-2-ylmethyl)-3,4-dihydro-2H,15′H-spiro[naphthalene-1,22′-[20]oxa[13]thia[1,14]diazatetracyclo [14.7.2.0˜3,6˜.0˜19,24˜]pentacosa[8,16,18,24]tetraen]-15′-one 13′,13′-dioxide] | 0.075 |

Same assay, conditions: read-out: OPM-2 10% FBS IC50 IP; OPM-2 cells, 10% FBS, 16 h, CellTiter-Glo

| SMILES | IC50 [µM] |
| --- | --- |
| CO[C@]1(CN2CCN3CCS(=O)(=O)C[C@@H]3C2)/C=C/C[C@H](C)[C@@H](C)S(=O)(=O)NC(=O)c2ccc3c(c2)N(C[C@@H]2CC[C@H]21)C[C@@]1(CCCc2cc(Cl)ccc21)CO3 (single isomer, unassigned) [Example 220] | 0.042 |
| CO[C@]1(CN2CCN3CCS(=O)(=O)C[C@@H]3C2)/C=C/C[C@H](C)[C@@H](C)S(=O)(=O)NC(=O)c2ccc3c(c2)N(C[C@@H]2CC[C@H]21)C[C@@]1(CCCc2cc(Cl)ccc21)CO3 (single isomer, unassigned) [Example 221] | 0.12 |
| CO[C@@]1(CN2CCN3CCN(C(=O)CCS(=O)(=O)c4ccccc4)C[C@@H]3C2)/C=C/C[C@H](C)[C@@H](C)S(=O)(=O)NC(=O)c2ccc3c(c2)N(C[C@@H]2CC[C@H]21)C[C@@]1(CCCc2cc(Cl)ccc21)CO3 (single isomer, unassigned) [Example 294] | 0.687 |
| CO[C@@]1(CN2CCN3CCS(=O)(=O)C[C@@H]3C2)/C=C/C[C@H](C)[C@@H](C)S(=O)(=O)NC(=O)c2ccc3c(c2)N(C[C@@H]2CC[C@H]21)C[C@@]1(CCCc2cc(Cl)ccc21)CO3 (single isomer, unassigned) [Example 231] | 0.098 |
| CO[C@]1(CN2CCN3CCN(S(C)(=O)=O)C[C@@H]3C2)/C=C/C[C@H](C)[C@@H](C)S(=O)(=O)NC(=O)c2ccc3c(c2)N(C[C@@H]2CC[C@H]21)C[C@@]1(CCCc2cc(Cl)ccc21)CO3 (single isomer, unassigned) [Example 238] | 0.076 |
| CO[C@]1(CN2CC[C@H]3CCCC[C@@H]3C2)/C=C/C[C@H](C)[C@@H](C)S(=O)(=O)NC(=O)c2ccc3c(c2)N(C[C@@H]2CC[C@H]21)C[C@@]1(CCCc2cc(Cl)ccc21)CO3 (single isomer, unassigned) [Example 89] | 8.21 |
| CO[C@@]1(CN2CCN3CCN(C(=O)CCS(=O)(=O)c4ccccc4)C[C@@H]3C2)/C=C/C[C@H](C)[C@@H](C)S(=O)(=O)NC(=O)c2ccc3c(c2)N(C[C@@H]2CC[C@H]21)C[C@@]1(CCCc2cc(Cl)ccc21)CO3 (stereo in doubt) [Example 233] | 0.202 |
| CO[C@@]1(CN2CCN3CCS(=O)(=O)C[C@@H]3C2)/C=C/C[C@H](C)[C@@H](C)S(=O)(=O)NC(=O)c2ccc3c(c2)N(C[C@@H]2CC[C@H]21)C[C@@]1(CCCc2cc(Cl)ccc21)CO3 (single isomer, unassigned) [Example 232] | 0.2 |
